In patent publication US9315519B2, “Guanidine substituted tetrahydroisoquinoline compounds as factor XIa inhibitors” (BRISTOL-MYERS SQUIBB COMPANY, priority 2012, dated 2016) one finds Ki data, which are given here for six compounds.

Broadly, the Ki is a dissociation constant, usually derived from enzyme kinetics or from competition with a known ligand.

Where a name gives a salt, the structure may show the parent alone.

The target of the assay is purified human Factor XIa (Homo sapiens (Human), UniProt P03951). Briefly: Factor XIa enzyme inhibition assay (chromogenic substrate S-2366). The assay is classed as biochemical. The conditions noted are these: substrate S-2366, pH 7.4. As to the method: The effectiveness of compounds of the present invention as inhibitors of the coagulation factors XIa, VIIa, IXa, Xa, XIIa, plasma kallikrein or thrombin, can be determined using a relevant purified serine protease, respectively, and an appropriate synthetic substrate. The rate of hydrolysis of the chromogenic or fluorogenic substrate by the relevant serine protease was measured both in the absence and presence of compounds of the present invention. […] A decrease in the rate of absorbance or fluorescence change in the presence of inhibitor is indicative of enzyme inhibition. Such methods are known to one skilled in the art. The results of this assay are expressed as the inhibitory constant, Ki.
purified human Factor XIa, sequence (P03951 388-625): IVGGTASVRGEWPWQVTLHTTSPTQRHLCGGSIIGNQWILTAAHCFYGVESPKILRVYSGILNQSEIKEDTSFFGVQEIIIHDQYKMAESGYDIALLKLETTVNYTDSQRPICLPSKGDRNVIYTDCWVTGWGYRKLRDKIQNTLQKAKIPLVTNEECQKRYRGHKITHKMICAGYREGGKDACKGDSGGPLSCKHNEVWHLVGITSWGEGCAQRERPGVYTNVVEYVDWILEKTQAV
purified human Factor XIa, sequence (P03951 19-387 partner): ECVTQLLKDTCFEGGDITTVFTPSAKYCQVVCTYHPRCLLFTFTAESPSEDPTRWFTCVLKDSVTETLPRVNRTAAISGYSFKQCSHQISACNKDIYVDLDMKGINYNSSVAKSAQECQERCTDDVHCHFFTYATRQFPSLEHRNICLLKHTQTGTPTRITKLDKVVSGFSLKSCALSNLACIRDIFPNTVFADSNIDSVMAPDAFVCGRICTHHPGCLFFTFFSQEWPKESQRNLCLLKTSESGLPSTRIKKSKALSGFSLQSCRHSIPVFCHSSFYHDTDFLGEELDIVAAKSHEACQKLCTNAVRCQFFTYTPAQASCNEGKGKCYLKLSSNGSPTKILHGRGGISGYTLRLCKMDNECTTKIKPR
Factor XIa determinations were made in 50 mM HEPES buffer at pH 7.4 containing 145 mM NaCl, 5 mM KCl, and 0.1% PEG 8000 (polyethylene glycol; JT Baker or Fisher Scientific). Determinations were made using purified human Factor XIa at a final concentration of 75-200 pM (Haematologic Technologies) and the synthetic substrate S-2366 (pyroGlu-Pro-Arg-pNA; CHROMOGENIX® or AnaSpec) at a concentration of 0.0002-0.001 M.
The Michaelis constant, Km, for substrate hydrolysis by each protease, was determined at 25° C. using the method of Lineweaver and Burk. Values of Ki were determined by allowing the protease to react with the substrate in the presence of the inhibitor. Reactions were allowed to go for periods of 20-180 minutes (depending on the protease) and the velocities (rate of absorbance or fluorescence change versus time) were measured. The following relationships were used to calculate Ki values: (vo−vs)/vs=I/(Ki(1+S/Km)) for a competitive inhibitor with one binding site; or vs/vo=A+((B−A)/1+((IC50/(I)n))); and Ki=IC50/(1+S/Km) for a competitive inhibitor where: […]
Compound `N=C(N)N1CCc2nc(C(=O)N3CCc4c(Br)cccc4C3C(=O)Nc3ccc(C(=O)O)cc3)sc2C1` (stereo not drawn) [Example 1, 4-(5-bromo-2-(5-carbamimidoyl-4,5,6,7-tetrahydrothiazolo[5,4-c]pyridine-2-carbonyl)-1,2,3,4-tetrahydroisoquinoline-1-carboxamido)benzoic acid, TFA Salt] yielded a Ki of 90.6 nM. The result for `COC1CCN(c2cccc3c2CCN(C(=O)C2CCN(C(=N)N)CC2)C3C(=O)Nc2ccc(C(=O)O)cc2)CC1` (stereo not drawn) [Example 24, 4-(2-(1-carbamimidoylpiperidine-4-carbonyl)-5-(4-methoxypiperidin-1-yl)-1,2,3,4-tetrahydroisoquinoline-1-carboxamido)benzoic acid, bis-TFA salt] reads 5.68 nM; that for `CN1CCN(c2cccc3c2CCN(C(=O)C2CC4(CCN(C(=N)N)CC4)C2)[C@@H]3C(=O)Nc2ccc(C(=O)O)cc2)C(=O)C1` [Example 18, (S)-4-(2-(7-carbamimidoyl-7-azaspiro[3.5]nonane-2-carbonyl)-5-(4-methyl-2-oxopiperazin-1-yl)-1,2,3,4-tetrahydroisoquinoline-1-carboxamido)benzoic acid, bis HCl Salt], < 5 nM; that for `COC1CCN(c2cccc3c2CCN(C(=O)c2nc4c(s2)CN(C(=N)N)CC4)C3C(=O)Nc2ccc(C(=O)O)cc2)CC1` (stereo not drawn) [Example 5, 4-(2-(5-carbamimidoyl-4,5,6,7-tetrahydrothiazolo[5,4-c]pyridine-2-carbonyl)-5-(4-methoxypiperidin-1-yl)-1,2,3,4-tetrahydroisoquinoline-1-carboxamido)benzoic acid, TFA salt], < 5 nM. With `COC1CCN(c2cccc3c2CCN(C(=O)C2CC4(CCNCC4)C2)C3C(=O)Nc2ccc(C(=O)O)cc2)CC1` (stereo not drawn) [Example 12, 4-(5-(4-methoxypiperidin-1-yl)-2-(7-azaspiro[3.5]nonane-2-carbonyl)-1,2,3,4-tetrahydroisoquinoline-1-carboxamido)benzoic acid, bis TFA Salt], the Ki is 190 nM. With `CN1CCN(c2cccc3c2CCN(C(=O)CC2CCN(C(=N)N)CC2)[C@H]3C(=O)Nc2ccc(C(=O)O)cc2)C(=O)C1` [Example 19, (R)-4-(2-(2-(1-carbamimidoylpiperidin-4-yl)acetyl)-5-(4-methyl-2-oxopiperazin-1-yl)-1,2,3,4-tetrahydroisoquinoline-1-carboxamido)benzoic acid, bis-HCl Salt] the figure was 382 nM.
